Results published in US20120270929A1, “MODULATION OF TTC39 EXPRESSION TO INCREASE HDL” (ISIS Pharmaceuticals, Inc., priority 2009, published 2012).
Oligonucleotides are written 5' to 3', each unit as a sugar letter and its base; * is a phosphorothioate linkage, no mark a phosphodiester; rarer units and linkages stand in square brackets, end groups in braces. Plain capitals give the bases only. e = 2'-O-(2-methoxyethyl) (MOE); [5mC] = 5-methylcytosine; d = 2'-deoxy (DNA)

Assays:
[1] = test system: murine TTC39B mRNA; assay: Dose-dependent antisense inhibition of murine TTC39B in mouse primary hepatocytes (Example 2); type: cell-based; conditions: cytofectin, ~16 h
Procedure, shortened: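 Mouse primary hepatocytes (10,000/well) transfected via cytofectin with 25, 50, 100 or 200 nM antisense oligonucleotide for about 16 h. TTC39B mRNA quantified by real-time PCR, normalized to RIBOGREEN total RNA, as % inhibition versus untreated cells.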

[2] = test system: murine TTC39B mRNA; assay: In vivo antisense inhibition of murine TTC39B mRNA in liver of C57BL/6 mice; set-up: species or system mouse; conditions: 50 mg/kg/week, 6 weeks, relative to PBS control
Procedure: (§1) Four groups of five mice each were injected twice a week with 25 mg/kg (totaling 50 mg/kg/week) of ISIS 447114, ISIS 447118, ISIS 447143, or ISIS 447144 for 6 weeks. A control group of five mice was injected with phosphate buffered saline (PBS) twice a week for 6 weeks. Plasma samples were obtained before the start of treatment, at week 3 and at week 6. At the end of the treatment period, mice were fasted for 4 hours before being euthanized. Plasma and tissue samples were obtained for further analysis.
RNA was extracted from liver tissue for real-time PCR analysis of TTC39B using murine primer probe set mTtc39b_LTS00287. […] Results are presented as an average of the percent inhibition of TTC39B, relative to control.

[3] = test system: APOA1 plasma protein; assay: APOA1 plasma protein levels in C57BL/6 mice; type: in vivo, mouse; set-up: APOA1 plasma protein levels: unit not given here; conditions: for APOA1 plasma protein % change over the baseline: 6 weeks
Procedure: as §1

[4] = test system: PCSK9 mRNA; assay: PCSK9 mRNA levels in C57BL/6 mice; type: in vivo, mouse; conditions: 50 mg/kg/week, 6 weeks, compared to PBS control
Procedure: as §1
The effect of inhibition of TTC39B in mice on cholesterol homeostasis was studied. PCSK9 mRNA levels were measured using the murine primer probe set mPCSK9 (forward sequence ACCGACTTCAACAGCGTGC, designated herein as SEQ ID NO: 106; reverse sequence GGCTGTCACACTTGCTCGC, designated herein as SEQ ID NO: 107, probe sequence AGGATGGGACACGCTTCCACAGACAX, wherein X is a fluorophore, designated herein as SEQ ID NO: 108). LDLR mRNA levels were measured using the murine primer probe set mLDLR (forward sequence GACCGCAGCGAGTACACCA, designated herein as SEQ ID NO: 109; reverse sequence TCACCTCCGTGTCGAGAGC, designated herein as SEQ ID NO: 110, probe sequence […], designated herein as SEQ ID NO: 111). The results are presented as percentage inhibition compared to the PBS control.

[5] = Plasma cholesterol and triglycerides in C57BL/6 mice (Olympus AU400e); type: in vivo, mouse; conditions: for total cholesterol % increase over baseline: 6 weeks, baseline average of 72 mg/dL
Procedure: as §1
To investigate the effect of inhibition of TTC39B on triglycerides and cholesterol levels in the plasma, samples were collected on weeks 0, 3, and 6, and total plasma cholesterol, LDL cholesterol, HDL cholesterol, and triglycerides were analyzed on an Olympus AU400e Analyzer.

[6] = Plasma glucose in C57BL/6 mice (glucose oxidase assay); type: in vivo, mouse
Procedure: as §1
Plasma glucose values were determined using a Beckman Glucose Analyzer II (Beckman Coulter) by a glucose oxidase assay. As presented in Table 14, there was no significant change in glucose levels after treatment with ISIS oligonucleotides.

[7] = Plasma NEFA and 3-HB in C57BL/6 mice; type: in vivo, mouse; set-up: 3-HB levels: unit not given here; conditions: for 3-HB % change over the baseline / NEFA % change over the baseline: 6 weeks
Procedure: as §1
Effect of antisense inhibition of TTC39B on free fatty acid levels Plasma levels of non-esterified fatty acids (NEFA) and 3-hydroxybutyric acid (3-HB), which are the end-products of fatty acid oxidation, were measured using an automated clinical chemistry analyzer (Olympus Clinical Analyzer).

[8] = Liver function: plasma transaminases (ALT, AST) in C57BL/6 mice; type: in vivo, mouse
Procedure: as §1
To evaluate the impact of ISIS oligonucleotides on the hepatic function of the mice described above, plasma concentrations of transaminases were measured using an automated clinical chemistry analyzer (Olympus Clinical Analyzer). Measurements of alanine transaminase (ALT) and aspartate transaminase (AST) are expressed in IU/L. The results are presented in Tables 19 and 20 and indicate that the oligonucleotides were well tolerated.

[9] = Week 0 (before treatment), 50 mg/kg/week

GCCACCAGTGCCTGCTGAGC (antisense eG*e[5mC]*e[5mC]*eA*e[5mC]*d[5mC]*dA*dG*dT*dG*d[5mC]*d[5mC]*dT*dG*d[5mC]*eT*eG*eA*eG*e[5mC]) [ISIS 447143]
percent inhibition of TTC39B mRNA ([1]; 25 nM): 36% | percent inhibition of TTC39B mRNA ([1]; 50 nM): 71% | percent inhibition of TTC39B mRNA ([1]; 100 nM): 79% | percent inhibition of TTC39B mRNA ([1]; 200 nM): 91% | % inhibition of TTC39B mRNA in liver [2]: 85% | APOA1 plasma protein % change over the baseline ([3]; 50 mg/kg/week): +108% | APOA1 plasma protein levels [3, 9]: +10 | APOA1 plasma protein levels ([3]; Week 3, 50 mg/kg/week): +15 | APOA1 plasma protein levels ([3]; Week 6, 50 mg/kg/week): +20 | Percent inhibition PCSK9 mRNA levels [4]: 65% | total cholesterol % increase over baseline ([5]; 50 mg/kg/week): +46% | HDL cholesterol levels [5, 9]: 44 mg/dL | LDL cholesterol levels [5, 9]: 13 mg/dL | total cholesterol levels [5, 9]: 70 mg/dL | triglyceride levels [5, 9]: 95 mg/dL | HDL cholesterol levels ([5]; Week 3, 50 mg/kg/week): 56 mg/dL | HDL cholesterol levels (% change over baseline) ([5]; Week 3, 50 mg/kg/week): +28% | LDL cholesterol levels ([5]; Week 3, 50 mg/kg/week): 14 mg/dL | total cholesterol levels ([5]; Week 3, 50 mg/kg/week): 81 mg/dL | triglyceride levels ([5]; Week 3, 50 mg/kg/week): 92 mg/dL | HDL cholesterol levels ([5]; Week 6, 50 mg/kg/week): 91 mg/dL | HDL cholesterol levels (% change over baseline) ([5]; Week 6, 50 mg/kg/week): +104% | LDL cholesterol levels ([5]; Week 6, 50 mg/kg/week): 17 mg/dL | total cholesterol levels ([5]; Week 6, 50 mg/kg/week): 104 mg/dL | triglyceride levels ([5]; Week 6, 50 mg/kg/week): 95 mg/dL | glucose levels [6, 9]: 238 mg/dL | glucose levels ([6]; Week 3, 50 mg/kg/week): 231 mg/dL | glucose levels ([6]; Week 6, 50 mg/kg/week): 241 mg/dL | 3-HB % change over the baseline ([7]; 50 mg/kg/week): +41% | NEFA % change over the baseline ([7]; 50 mg/kg/week): +109% | 3-HB levels [7, 9]: 108 | NEFA levels [7, 9]: 0.70 mEq/L | 3-HB levels ([7]; Week 3, 50 mg/kg/week): 89 | NEFA levels ([7]; Week 3, 50 mg/kg/week): 0.72 mEq/L | 3-HB levels ([7]; Week 6, 50 mg/kg/week): 222 | NEFA levels ([7]; Week 6, 50 mg/kg/week): 1.30 mEq/L | ALT levels [8, 9]: 32 IU/L | AST levels [8, 9]: 50 IU/L | ALT levels ([8]; Week 3, 50 mg/kg/week): 31 IU/L | AST levels ([8]; Week 3, 50 mg/kg/week): 31 IU/L | ALT levels ([8]; Week 6, 50 mg/kg/week): 45 IU/L | AST levels ([8]; Week 6, 50 mg/kg/week): 73 IU/L

TATTTCTATAGCTCATGACA (antisense eT*eA*eT*eT*eT*d[5mC]*dT*dA*dT*dA*dG*d[5mC]*dT*d[5mC]*dA*eT*eG*eA*e[5mC]*eA) [ISIS 447144]
percent inhibition of TTC39B mRNA ([1]; 25 nM): 37% | percent inhibition of TTC39B mRNA ([1]; 50 nM): 69% | percent inhibition of TTC39B mRNA ([1]; 100 nM): 74% | percent inhibition of TTC39B mRNA ([1]; 200 nM): 84% | % inhibition of TTC39B mRNA in liver [2]: 70% | APOA1 plasma protein % change over the baseline ([3]; 50 mg/kg/week): +108% | APOA1 plasma protein levels [3, 9]: +10 | APOA1 plasma protein levels ([3]; Week 3, 50 mg/kg/week): +14 | APOA1 plasma protein levels ([3]; Week 6, 50 mg/kg/week): +20 | Percent inhibition PCSK9 mRNA levels [4]: 19% | total cholesterol % increase over baseline ([5]; 50 mg/kg/week): +37% | HDL cholesterol levels [5, 9]: 46 mg/dL | LDL cholesterol levels [5, 9]: 14 mg/dL | total cholesterol levels [5, 9]: 75 mg/dL | triglyceride levels [5, 9]: 78 mg/dL | HDL cholesterol levels ([5]; Week 3, 50 mg/kg/week): 53 mg/dL | HDL cholesterol levels (% change over baseline) ([5]; Week 3, 50 mg/kg/week): +14% | LDL cholesterol levels ([5]; Week 3, 50 mg/kg/week): 14 mg/dL | total cholesterol levels ([5]; Week 3, 50 mg/kg/week): 81 mg/dL | triglyceride levels ([5]; Week 3, 50 mg/kg/week): 70 mg/dL | HDL cholesterol levels ([5]; Week 6, 50 mg/kg/week): 90 mg/dL | HDL cholesterol levels (% change over baseline) ([5]; Week 6, 50 mg/kg/week): +88% | LDL cholesterol levels ([5]; Week 6, 50 mg/kg/week): 18 mg/dL | total cholesterol levels ([5]; Week 6, 50 mg/kg/week): 107 mg/dL | triglyceride levels ([5]; Week 6, 50 mg/kg/week): 91 mg/dL | glucose levels [6, 9]: 222 mg/dL | glucose levels ([6]; Week 3, 50 mg/kg/week): 239 mg/dL | glucose levels ([6]; Week 6, 50 mg/kg/week): 235 mg/dL | 3-HB % change over the baseline ([7]; 50 mg/kg/week): +152% | NEFA % change over the baseline ([7]; 50 mg/kg/week): +101% | 3-HB levels [7, 9]: 124 | NEFA levels [7, 9]: 0.57 mEq/L | 3-HB levels ([7]; Week 3, 50 mg/kg/week): 122 | NEFA levels ([7]; Week 3, 50 mg/kg/week): 0.63 mEq/L | 3-HB levels ([7]; Week 6, 50 mg/kg/week): 398 | NEFA levels ([7]; Week 6, 50 mg/kg/week): 1.25 mEq/L | ALT levels [8, 9]: 28 IU/L | AST levels [8, 9]: 67 IU/L | ALT levels ([8]; Week 3, 50 mg/kg/week): 21 IU/L | AST levels ([8]; Week 3, 50 mg/kg/week): 31 IU/L | ALT levels ([8]; Week 6, 50 mg/kg/week): 69 IU/L | AST levels ([8]; Week 6, 50 mg/kg/week): 113 IU/L
